The values that follow come from paper PMC12186843, “Targeting GABAergic Hypofunction Associated with Schizophrenia: Identification of α1β2γ2GABA‑A Receptor Ligands with Neuroprotective and Antipsychotic Properties” (ACS Chemical Neuroscience, 2025).

Series [1] in a line: PAMPA permeability assay. It counts as in vitro ADME. The conditions noted are these: pH 7.4, PAMPA, PBS pH 7.4, 100 μM, zolpidem tested as tartrate, read-out: Permeability Pe ± SD. The procedure: PAMPA. The precoated PAMPA Plate System Gentest, obtained from Corning (Tewksbury, MA, USA), was used for the permeability study. The system includes a 96-well receiver filter plate precoated with structured phospholipid layers and a matching donor microplate. Stock solutions of the test compounds and reference drugs were prepared in PBS buffer (pH 7.4) at a final concentration of 100 μM. Each compound solution (200 μL) was added to the donor wells and incubated at room temperature for 5 h. The quantity of molecules that penetrated from the donor wells to the acceptor wells through the phospholipid membrane was determined using UPLC-MS spectrometry (Waters ACQUITY TQD system with the TQ Detector, Waters, Milford, USA) with an internal standard. Permeability coefficients (Pe, cm/s) were calculated according to the formula provided by the manufacturer.

For series [2], the system named is SH-SY5Y cells. Kind of series: Intracellular calcium concentration after 6-OHDA (Fluo-4). The conditions noted are these: 50 μM pretreatment 1 h, then 6-OHDA 250 μM 1 h. Type of series: cell-based, human. The procedure:
7 (A). Effect of 6-Hydroxydopamine (6-OHDA) on intracellular calcium concentration [Ca^2+] determined by Fluo-4 AM. After pretreatment with tested compounds (50 μM) or vehicle (0.5% DMSO, v/v) for 1 h, the cells were incubated with 6-Hydroxydopamine (6-OHDA, 250 μM) for 1 h. 6-OHDA control: cells treated with 250 μM of 6-OHDA. […]. DMSO control: cells treated with 0.5% DMSO only. Data are presented as the mean ± SD from 2–3 independent experiments. Experiments were carried on with ImageXpress Micro XLS (Molecular Devices). (B) The level of ROS generation was determined by Cell ROX dye. After pretreatment with tested compounds (50 μM) or vehicle (0.5% DMSO, v/v) for 1 h, the cells were incubated with hydrogen peroxide (H2O2, 300 μM) for 1 h. H2O2 control: cells treated with H2O2 (300 μM). DMSO control: cells treated with 0.5% DMSO only. Data are presented as the mean ± SD from 2–3 independent experiments. Experiments were carried on with the ImageXpress Micro XLS (Molecular Devices).
The SH-SY5Y human neuroblastoma cell line was maintained according to established protocols. The cells, obtained from the American Type Culture Collection (ATCC), were cultured in Dulbecco’s Modified Eagle’s Medium (DMEM, high glucose; Thermo Fisher), supplemented with 10% fetal bovine serum (Thermo Fisher), 100 IU/ml penicillin (Merck), and 100 μg/mL streptomycin (Merck). They were grown in 75 cm^2 flasks (Nunc) at 37 °C in a humidified atmosphere containing 5% CO2. For compound evaluation, SH-SY5Y cells were plated in 96-well plates (Falcon) at a density of 2 × 10^4 cells per well. The cells were allowed to adhere and grow for 24 h in an incubator set to 37 °C and 5% CO2 before starting the experiments. Stock solutions of both test and reference compounds were prepared at a concentration of 10^–2 M. A minimum of 1 mg of each compound was dissolved in dimethyl sulfoxide (DMSO). Serial dilutions were made in DMSO, then further diluted in PBS, mixed, and added to the cell culture medium.
The intracellular Ca^2+ levels were assessed using a homogeneous cell-based assay with the Fluo-4 Direct Calcium Assay Kit (Thermo Fisher). Following incubation with the tested compounds, the supernatant was discarded, and the cells were incubated with 1 μM Fluo-4/AM in FluoroBrite DMEM (Thermo Fisher) for 1 h at 37 °C. The results were expressed as a percentage relative to the control (DMSO). Fluorescence intensity was recorded using the ImageXpress Micro XLS system (Molecular Devices).
A general note: Calcium assays in cells follow changes in intracellular calcium, usually with a dye or a luminescent sensor.

Series [3] concerns Wistar rats. Kind of series: Amphetamine-induced hyperlocomotion. Type of series: in vivo, rat. Particulars: i.p., doses of 3.0 mg/kg and 10.0 mg/kg, amphetamine 1.0 mg/kg i.p., p < 0.01. The procedure:
(§1) 8 (A). […] The dose of 0 mg/kg corresponds to subjects treated with vehicle and amphetamine (1.0 mg/kg, i.p.). Data are presented as the mean ± SEM (n = 8). One-way ANOVA F(3,28)=0.2, p > 0.05, one-way ANOVA F(3,28)=[…], p < 0.01**. (B). […] The dose of 0 mg/kg corresponds to subjects treated with vehicle and MK-801 (0.3 mg/kg, i.p.). Data are presented as the mean ± SEM (n = 8). ** p < 0.01, Newman-Keuls test, F(3,28)=5.29, p = 0.005. (C) Effects of compound 9, administered at doses ranging from 1 to 10 mg/kg, on spontaneous locomotor activity in rats. Data are presented as the mean ± SEM (n = 8). One-way ANOVA F(3,28) = 0.3, p > 0.05, one-way ANOVA F(3,28) = 6.7, p < 0.01*.
(§2) All behavioral procedures were conducted using drug-naive male Wistar rats (Charles River, Sulzfeld, Germany), (n = 8/per group). Animals were housed in groups of four per standard plastic cage under controlled environmental conditions (temperature: 22 ± 1 °C, humidity: 60%, and a 12:12 light-dark cycle with lights on at 07:00 a.m.). […]
(§3) All procedures were performed in a sound-attenuated experimental room between 9:00 a.m. and 3:00 p.m. […] Locomotor activity was measured in black octagonal cages (80 cm diameter, 30 cm height) amid dim lighting and constant white noise (65 dB). […] Locomotor activity (cm/30 min) was recorded and analyzed using an automated motion monitoring system (Videomot, TSE, Bad Homburg, Germany). […]

The test system of series [4] is Wistar rats. Put plainly: MK-801-induced hyperlocomotion. The conditions noted are these: i.p., 1, 3 and 10 mg/kg, significant effect at 10 mg/kg, MK-801 0.3 mg/kg i.p. Type of series: in vivo, rat. The protocol: as §1, §2, §3

On to `Cc1ccc2nc(-c3ccc(F)cc3)c(CC(=O)N3CCCC3)n2c1.O=C(O)C(O)C(O)C(=O)O` [Compound 17, 2-(4-Fluorophenyl)-6-methyl-3-(2-oxo-2-(pyrrolidin-1-yl)-ethyl)imidazo[1,2-a]pyridin-1-ium 3-carboxy-2,3-dihydroxy-propanoate], for which the Papp at 5 h, 100 μM in series [1] was above 4 ×10⁻⁶ cm/s. In addition, the “Reduction of intracellular calcium levels” value in series [2] was 48%. Besides, the “Effect on amphetamine-induced hyperlocomotion” value in series [3] was “significantly reduced amphetamine-induced hyperlocomotion”. The “Effect on MK-801-induced hyperlocomotion” value in series [4] is recorded as “reduced hyperlocomotion”.
